The values below come from US6147097A, “Imidazole derivatives as anti-HIV agents” (Shionogi & Co., Ltd., priority 1994, dated 2000).

One data set concerns MT-4 cells. Description: cytotoxicity in MT-4 cells (MTT, culture medium in place of HIV). Type of data set: cell-based. The conditions noted are these: human, mt-4 cells, 120 h. Put shortly:
(§1)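 MT-4 cells (3.5×10^4 per well) exposed to diluted compound with culture medium added instead of HIV, 5 days at 37° C in CO2. MTT added for 1 h, formazan dissolved in Triton X-100/acidified isopropanol. OD read at 560 nm (690 nm reference) and compared with control.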

For a further data set, the system named is HIV (HTLV-IIIB strain). Description: microbe, parasite or virus in culture. The conditions noted are these: Human immunodeficiency virus 1, IIIB, MT4, 120 h; MT-4 cells, 60 pfu HIV per well, 37° C., 5 days, MTT; Tables 1 and 2; read-out: EC50. Type of data set: cell-based. Put shortly:
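MT-4 cells (3.5×10^4 per well) were infected with HIV at 60 pfu per well in the presence of diluted compound and incubated for 5 days at 37° C. Surviving cells were then measured by MTT reduction, with the formazan dissolved in acidified isopropanol containing Triton X-100.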

The nature of data set [1]: cytotoxicity in MT-4 cells (MTT, culture medium in place of HIV). Type of data set: cell-based. The conditions noted are these: human. The procedure, abridged:
as §1

In data set [2] the target is T1, purified recombinant HIV-1 reverse transcriptase (Human immunodeficiency virus type 1 group M subtype B, UniProt P04585).
T1 construct: purified recombinant HIV-1 reverse transcriptase; made in house; host or cells: Escherichia coli
Description: reverse transcriptase inhibition, poly(rA)/(dT) template primer, [3H]dTTP uptake. In kind it is biochemical. The procedure, abridged: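 Inhibition reported as percent reduction of [3H]dTTP incorporation relative to solvent control, after 1 h at 37 °C at pH 8.3. Recombinant RT from E. coli, poly(rA) template with oligo(dT) primer, 4 μM unlabeled dTTP as substrate; product collected on DEAE filter mats.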

Setting [3] is: MT-4 cells, no virus, 37° C., 5 days, MTT, Table 3, read-out: CC50.

pIC50: −log10 of the molar value. Converted amounts (≈) assume the structure as drawn. Read-outs that look alike come from different tables or passages of the source.

Turning to `CC(O)Cn1c(CO)nc(C(C)C)c1Sc1cc(Cl)cc(Cl)c1` (stereo not shown) [Compound 141a, 5-(3,5-dichlorophenylthio)-2-hydroxymethyl-1-(2-hydroxypropyl)-4-isopropyl-1H-imidazole], in the data set on MT-4 cells, the “EC50 (head of Table 4; CC50 per Test Example 2)” value is 12.5 to 25 µg/mL.

`CC(C)c1nc(CO)n(CC(C)(C)O)c1Sc1cc(Cl)cc(Cl)c1` [Compound I-153, 5-(3,5-dichlorophenylthio)-2-hydroxymethyl-1-(2-hydroxy-2-methylpropyl)-4-isopropyl-1H-imidazole]: the EC50 in the data set with HIV (HTLV-IIIB strain) is 0.016 µg/mL (≈ 0.0411 µM). In data set [1] (mt-4 cells), this compound yielded a half-maximal cytotoxic concentration (CC50) at 120 h of 12.5 µg/mL (≈ 32.1 µM). The pIC50 in data set [2] was 4.59.

For the compound `CC(O)Cn1c(CO)nc(C(C)C)c1Sc1cc(Cl)cc(Cl)c1` (stereo not shown) [I-32', [1-(2-hydroxypropyl)-5-(3,5-dichlorophenylthio)-4-isopropyl-1H-imidazol-2-yl]methanol], the EC50 in the data set with HIV (HTLV-IIIB strain) lay in the range of 0.002 to 0.004 µg/mL (≈ 0.00533 to 0.0107 µM). Besides, in data set [1] (setting [3]), the CC50 at 120 h was in the range of 12.5 to 25 µg/mL (≈ 33.3 to 66.6 µM). The pIC50 in data set [2] is 5.82.

On to `CC(C)c1nc(CN)n(Cc2ccncc2)c1Sc1cc(Cl)cc(Cl)c1` [I-95', 2-aminomethyl-5-(3,5-dichlorophenylthio)-4-isopropyl-1-(pyridin-4-yl)methyl-1H-imidazole], for which the EC50 in the data set on HIV (HTLV-IIIB strain) came out at 0.005 µg/mL (≈ 0.0123 µM). Moreover, in data set [1] (setting [3]), the CC50 at 120 h lay in the range of 6.3 to 12.5 µg/mL (≈ 15.5 to 30.7 µM). Moreover, the pIC50 in data set [2] is 5.93.

For orientation: EC50 means the concentration at which the effect is half-maximal. As a reminder, the CC50 is the concentration giving 50% cytotoxicity. The pIC50 is the IC50 on a negative log10 scale, so that one unit is a factor of ten.
